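Exposure lasted 48 hours, with cells grown in 96-well plates and compounds tested at five concentrations. The concentration for full growth arrest is given as TGI.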
Assays:
Assay in all cases: inhibition of tumour cell growth, NCI panel, 48 h
786-0 renal = tested on: 786-0 renal
A498 renal = tested on: A498 renal
A549 NSCLC = tested on: A549 NSCLC
ACHN renal = tested on: ACHN renal
BT-549 breast = tested on: BT-549 breast
CAKI-1 renal = tested on: CAKI-1 renal
CCRF-CEM leukemia = tested on: CCRF-CEM leukemia
COLO 205 colon = tested on: COLO 205 colon
DU-145 prostate = tested on: DU-145 prostate
EKVX NSCLC = tested on: EKVX NSCLC
HCC-2998 colon = tested on: HCC-2998 colon
HCT-116 colon = tested on: HCT-116 colon
HCT-15 colon = tested on: HCT-15 colon
HL-60(TB) leukemia = tested on: HL-60(TB) leukemia
HOP-62 NSCLC = tested on: HOP-62 NSCLC
HOP-92 NSCLC = tested on: HOP-92 NSCLC
HS 578T breast = tested on: HS 578T breast
HT29 colon = tested on: HT29 colon
IGROV1 ovarian = tested on: IGROV1 ovarian
K-562 leukemia = tested on: K-562 leukemia
KM12 colon = tested on: KM12 colon
LOX IMVI melanoma = tested on: LOX IMVI melanoma
M14 melanoma = tested on: M14 melanoma
MALME-3M melanoma = tested on: MALME-3M melanoma
MCF7 breast = tested on: MCF7 breast
MDA-MB-231 breast = tested on: MDA-MB-231 breast
MDA-MB-435 = tested on: MDA-MB-435
MDA-N = tested on: MDA-N
MOLT-4 leukemia = tested on: MOLT-4 leukemia
NCI-H226 lung = tested on: NCI-H226 lung
NCI-H23 lung = tested on: NCI-H23 lung
NCI-H460 lung = tested on: NCI-H460 lung
NCI-H522 lung = tested on: NCI-H522 lung
NCI/ADR-RES ovarian = tested on: NCI/ADR-RES ovarian
OVCAR-3 ovarian = tested on: OVCAR-3 ovarian
OVCAR-4 ovarian = tested on: OVCAR-4 ovarian
OVCAR-5 ovarian = tested on: OVCAR-5 ovarian
OVCAR-8 ovarian = tested on: OVCAR-8 ovarian
PC-3 prostate = tested on: PC-3 prostate
RPMI-8226 leukemia = tested on: RPMI-8226 leukemia
RXF 393 renal = tested on: RXF 393 renal
SF-268 CNS = tested on: SF-268 CNS
SF-295 CNS = tested on: SF-295 CNS
SF-539 CNS = tested on: SF-539 CNS
SK-MEL-2 melanoma = tested on: SK-MEL-2 melanoma
SK-MEL-28 melanoma = tested on: SK-MEL-28 melanoma
SK-MEL-5 melanoma = tested on: SK-MEL-5 melanoma
SK-OV-3 ovarian = tested on: SK-OV-3 ovarian
SN12C renal = tested on: SN12C renal
SNB-19 CNS = tested on: SNB-19 CNS
SNB-75 CNS = tested on: SNB-75 CNS
SR leukemia = tested on: SR leukemia
SW-620 colon = tested on: SW-620 colon
T-47D breast = tested on: T-47D breast
TK-10 renal = tested on: TK-10 renal
U251 CNS = tested on: U251 CNS
UACC-257 melanoma = tested on: UACC-257 melanoma
UACC-62 melanoma = tested on: UACC-62 melanoma
UO-31 renal = tested on: UO-31 renal

COc1ccc(-c2nc(N)c(C#N)c3c2CCSc2ccc(C)cc2-3)cc1OC
TGI (786-0 renal): > 61.1 µM | TGI (A498 renal): > 63.2 µM | TGI (A549 NSCLC): > 100 µM | TGI (ACHN renal): > 73.9 µM | TGI (BT-549 breast): 70.8 µM | TGI (CAKI-1 renal): > 70.5 µM | TGI (CCRF-CEM leukemia): 23.6 µM | TGI (COLO 205 colon): 26.6 µM | TGI (DU-145 prostate): > 67.2 µM | TGI (EKVX NSCLC): > 85.3 µM | TGI (HCC-2998 colon): > 57.8 µM | TGI (HCT-116 colon): 30.7 µM | TGI (HCT-15 colon): > 73.1 µM | TGI (HL-60(TB) leukemia): 17.7 µM | TGI (HOP-62 NSCLC): > 100 µM | TGI (HOP-92 NSCLC): 55 µM | TGI (HS 578T breast): 52.9 µM | TGI (HT29 colon): > 53.1 µM | TGI (IGROV1 ovarian): > 91.2 µM | TGI (K-562 leukemia): 13.7 µM | TGI (KM12 colon): 34.2 µM | TGI (LOX IMVI melanoma): > 50.2 µM | TGI (M14 melanoma): > 100 µM | TGI (MALME-3M melanoma): > 100 µM | TGI (MCF7 breast): 63.5 µM | TGI (MDA-MB-231 breast): 35.8 µM | TGI (MDA-MB-435): > 100 µM | TGI (MDA-N): > 45.5 µM | TGI (MOLT-4 leukemia): 25.1 µM | TGI (NCI-H226 lung): > 70.9 µM | TGI (NCI-H23 lung): > 61 µM | TGI (NCI-H460 lung): > 61.5 µM | TGI (NCI-H522 lung): > 100 µM | TGI (NCI/ADR-RES ovarian): > 58 µM | TGI (OVCAR-3 ovarian): > 100 µM | TGI (OVCAR-4 ovarian): > 93.8 µM | TGI (OVCAR-5 ovarian): > 100 µM | TGI (OVCAR-8 ovarian): > 73.6 µM | TGI (PC-3 prostate): > 100 µM | TGI (RPMI-8226 leukemia): 7.09 µM | TGI (RXF 393 renal): > 100 µM | TGI (SF-268 CNS): 93.9 µM | TGI (SF-295 CNS): > 100 µM | TGI (SF-539 CNS): 58.9 µM | TGI (SK-MEL-2 melanoma): > 75.6 µM | TGI (SK-MEL-28 melanoma): > 81.8 µM | TGI (SK-MEL-5 melanoma): 25.2 µM | TGI (SK-OV-3 ovarian): > 95.1 µM | TGI (SN12C renal): 44.4 µM | TGI (SNB-19 CNS): > 83.5 µM | TGI (SNB-75 CNS): 71.3 µM | TGI (SR leukemia): 18.1 µM | TGI (SW-620 colon): > 100 µM | TGI (T-47D breast): > 31.5 µM | TGI (TK-10 renal): > 100 µM | TGI (U251 CNS): > 100 µM | TGI (UACC-257 melanoma): > 76.2 µM | TGI (UACC-62 melanoma): 47.1 µM | TGI (UO-31 renal): 27.2 µM

Source: PubChem BioAssay (NCI)
